From EP2125859B1, “ESTRATRIENE DERIVATIVES AND THEIR USES AS 17BETA-HYDROXYSTEROID DEHYDROGENASE INHIBITORS” (Abbott Products GmbH, priority 2006, dated 2008) come the findings set out here.

In the test the target is T1, recombinant human 17β-HSD1 (Homo sapiens, UniProt P14061).
T1 construct: made in house; host or cells: Sf9 insect cells (baculovirus, Bac to Bac Expression System)
T1 sequence (P14061 1-328): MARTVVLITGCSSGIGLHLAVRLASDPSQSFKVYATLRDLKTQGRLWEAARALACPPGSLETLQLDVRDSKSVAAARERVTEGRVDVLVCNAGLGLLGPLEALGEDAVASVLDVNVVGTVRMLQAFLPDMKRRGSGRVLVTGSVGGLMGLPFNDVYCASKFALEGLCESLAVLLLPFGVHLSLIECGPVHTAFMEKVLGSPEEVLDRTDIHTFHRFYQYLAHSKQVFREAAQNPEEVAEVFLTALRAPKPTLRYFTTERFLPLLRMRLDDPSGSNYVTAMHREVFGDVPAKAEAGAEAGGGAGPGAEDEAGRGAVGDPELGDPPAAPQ
The experiment in a line: Inhibition of recombinant human 17β-HSD1 (HPLC assay, conversion of 3H-estrone to estradiol). The conditions noted are these: 30 nM 3H-estrone, 1 mM NADPH, 30 min at RT; for inhibition at 0.1 µM / inhibition at 1 µM: 0.5 h, read-out: inhibition of rec. 17β-HSD1. The class given is biochemical. The procedure:
Inhibition of the 17β-hydroxysteroid dehydrogenase type 1 enzyme 17β-HSD1 purification: Recombinant baculovirus was generated by the "Bac to Bac Expression System" (Invitrogen). Recombinant bacmid was transfected to Sf9 insect cells using "Cellfectin Reagent" (Invitrogen). 60h later cells were harvested; the microsomal fraction was isolated as described by Puranen et al. (1994). Aliquots were stored frozen until determination of enzymatic activity.
Assay - Inhibition of recombinant human 17β-HSD1: Recombinant protein (0.1 µg/ml) was incubated in 20 mM KH2PO4 pH 7.4 with 30 nM 3H-estrone and 1 mM NADPH for 30 min at RT, in the presence of potential inhibitors at concentrations of 1 µM or 0.1 µM. Inhibitor stock solutions were prepared in DMSO. Final concentration of DMSO was adjusted to 1 % in all samples. The enzyme reaction was stopped by addition of 10 % trichloroacetic acid (final concentration). Samples were centrifuged in a microtiter plate at 4000 rpm for 10 min. Supernatants were applied to reverse phase HPLC on a Waters Symmetry C18 column, equipped with a Waters Sentry Guard column. Isocratic HPLC runs were performed at RT at a flow rate of 1 ml/min of acetonitrile:water 48:52 as running solvent. Radioactivity was monitored in the eluate by a Packard Flow Scintillation Analyzer. Total radioactivity for estrone and estradiol were determined in each sample and percent conversion of estrone to estradiol was calculated according to the following formula: [formula] [formula]
The values "% inhibition" were determined for exemplified compounds, and the results are summarized in table 4 (for 17β-HSD1). table 4: HSD 1 inhibition values in % of selected compounds of formula I

As a reminder, the inhibition is how much of the control response was suppressed. `C[C@]12CC[C@@H]3c4ccc(O)cc4CC[C@H]3[C@@H]1[C@H](CCn1cc(CCc3ccccc3)nn1)CC2=O` [Compound 1, 3-Hydroxy-15ß-[2-(4-phenethyl-[1,2,3]triazol-1-yl)-ethyl]-estra-1,3,5(10)-trien-17-one]: the inhibition at 0.1 µM (100 nM inhibitor) is 92%. Moreover, where the note is “1 µM inhibitor”, the inhibition at 1 µM amounted to 98%.

For `C[C@]12CC[C@@H]3c4ccc(O)cc4CC[C@H]3[C@@H]1[C@H](CCCn1cc(CC3CCCCC3)nn1)CC2=O` [Compound 21, 3-Hydroxy-15β-[3-(4-cyclohexylmethyl-[1,2,3]triazol-1-yl)-propyl]-estra-1,3,5(10)-trien-17-one], the inhibition at 0.1 µM (100 nM inhibitor) worked out at 50%. Moreover, where the note is “1 µM inhibitor”, the inhibition at 1 µM was determined as 86%.

With `C[C@]12CC[C@@H]3c4ccc(O)cc4CC[C@H]3[C@@H]1[C@H](CCn1cc(-c3ccc(OC(F)(F)F)cc3)nn1)CC2=O` [Compound 13, 3-Hydroxy-15β-{2-[4-(4-trifluoromethoxy-phenyl)-[1,2,3]triazol-1-yl]-ethyl}-estra-1,3,5(10)-trien-17-one], under “100 nM inhibitor”, the inhibition at 0.1 µM came out at 83%. For the same compound, the inhibition at 1 µM (1 µM inhibitor) was found to be 92%.

As to `C[C@]12CC[C@@H]3c4ccc(O)cc4CC[C@H]3[C@@H]1[C@H](CCn1cc(-c3cccc(C(F)(F)F)c3)nn1)CC2=O` [Compound 9, 3-Hydroxy-15β-{2-[4-(3-trifluoromethyl-phenyl)-[1,2,3]triazol-1-yl]-ethyl}-estra-1,3,5(10)-trien-17-one], where the note is “100 nM inhibitor”, the inhibition at 0.1 µM is 84%. Moreover, the inhibition at 1 µM (1 µM inhibitor) turned out to be 93%.

On to `C[C@]12CC[C@@H]3c4ccc(O)cc4CC[C@H]3[C@@H]1[C@H](CCCn1cc(-c3ccc(OC(F)(F)F)cc3)nn1)CC2=O` [Compound 32, 3-Hydroxy-15β-{3-[4-(4-trifluoromethoxy-phenyl)-[1,2,3]triazol-1-yl]-propyl}-estra-1,3,5(10)-trien-17-one], for which the inhibition at 0.1 µM (100 nM inhibitor) came out at 67%. Also, the inhibition at 1 µM (1 µM inhibitor) was found to be 81%.

With `CC(C)CCc1cn(CCC[C@H]2CC(=O)[C@@]3(C)CC[C@@H]4c5ccc(O)cc5CC[C@H]4[C@H]23)nn1` [Compound 30, 3-hydroxy-15-[3-(4-isopentyl-[1,2,3]triazol-1-yl)-propyl]-13-methyl-6,7,8,9,11,12,13,14,15,16-decahydro-cyclopenta[a]phenanthren-17-one], the inhibition at 0.1 µM (100 nM inhibitor) was found to be 25%. Besides, the inhibition at 1 µM (1 µM inhibitor) stood at 82%.

As to `COc1ccc(-c2cn(CC[C@@H]3CC(=O)[C@@]4(C)CC[C@@H]5c6ccc(O)cc6CC[C@H]5[C@H]34)nn2)cc1` [Compound 11, 3-Hydroxy-15β-{2-[4-(4-methoxy-phenyl)-[1,2,3]triazol-1-yl]-ethyl}-estra-1,3,5(10)-trien-17-one], the inhibition at 0.1 µM (100 nM inhibitor) turned out to be 75%. For the setting “1 µM inhibitor”, the inhibition at 1 µM is 93%.

As for `CC(C)Cc1cn(CCC[C@H]2CC(=O)[C@@]3(C)CC[C@@H]4c5ccc(O)cc5CC[C@H]4[C@H]23)nn1` [Compound 31, 3-Hydroxy-15-[3-(4-isobutyl-[1,2,3]triazol-1-yl)-propyl]-13-methyl-6,7,8,9,11,12,13,14,15,16-decahydro-cyclopenta[a]phenanthren-17-one], the inhibition at 0.1 µM (100 nM inhibitor) turned out to be 32%. The inhibition at 1 µM (1 µM inhibitor) was 82%.

Regarding `C[C@]12CC[C@@H]3c4ccc(O)cc4CC[C@H]3[C@@H]1[C@H](CCCn1cc(-c3cc(F)cc(F)c3)nn1)CC2=O` [Compound 18, 3-Hydroxy-15ß-{3-[4-(3,5-Difluoro-phenyl)-[1,2,3]triazol-1-yl]-propyl}-estra-1,3,5(10)-trien-17-one], the inhibition at 0.1 µM (100 nM inhibitor) stood at 64%. For the same compound, for the setting “1 µM inhibitor”, the inhibition at 1 µM was 88%.

As for `COC(=O)c1ccc(-c2cn(CCC[C@@H]3CC(=O)[C@@]4(C)CC[C@@H]5c6ccc(OC)cc6CC[C@H]5[C@H]34)nn2)cc1` [Compound 89, 4-{1-[3-(3-Methoxy-15β-17-oxo-estra-1,3,5(10)-trien-15-yl)-propyl]-1H-[1,2,3]triazol-4-yl}-benzoic acid methyl ester], the “inhibition of rec. 17β-HSD1” value is, setting by setting: (100 nM inhibitor) 11%; (1 µM inhibitor) 52%.

Turning to `C[C@]12CC[C@@H]3c4ccc(O)cc4CC[C@H]3[C@@H]1[C@H](CCCn1cc(-c3ccc(F)cc3F)nn1)CC2=O` [Compound 28, 3-Hydroxy-15β-{3-[4-(2,4-difluoro-phenyl)-[1,2,3]triazol-1-yl]-propyl}-estra-1,3,5(10)-trien-17-one], the inhibition at 0.1 µM (100 nM inhibitor) came out at 40%. Moreover, the inhibition at 1 µM (1 µM inhibitor) was determined as 83%.

On to `C[C@]12CC[C@@H]3c4ccc(O)cc4CC[C@H]3[C@@H]1[C@H](CCn1cc(-c3cccc(O)c3)nn1)CC2=O` [Compound 2, 3-Hydroxy-15β-{2-[4-(3-hydroxy-phenyl)-[1,2,3]triazol-1-yl]-ethyl}-estra-1,3,5(10)-trien-17-one], for which, where the note is “100 nM inhibitor”, the inhibition at 0.1 µM came to 88%. Besides, the inhibition at 1 µM (1 µM inhibitor) was 97%.

Turning to `C[C@]12CC[C@@H]3c4ccc(O)cc4CC[C@H]3[C@@H]1[C@H](CCn1cc(-c3ccc(C(F)(F)F)cc3)nn1)CC2=O` [Compound 10, 3-Hydroxy-15β-{2-[4-(4-trifluoromethyl-phenyl)-[1,2,3]triazol-1-yl]-ethyl}-estra-1,3,5(10)-trien-17-one], where the note is “100 nM inhibitor”, the inhibition at 0.1 µM is 83%. Also, for the setting “1 µM inhibitor”, the inhibition at 1 µM came out at 93%.

`C[C@]12CC[C@@H]3c4ccc(O)cc4CC[C@H]3[C@@H]1[C@H](CCn1cc(-c3ccc(F)cc3F)nn1)CC2=O` [Compound 3, 3-Hydroxy-15β-{2-[4-(2,4-difluoro-phenyl)-[1,2,3]triazol-1-yl]-ethyl}-estra-1,3,5(10)-trien-17-one]: the inhibition at 0.1 µM (100 nM inhibitor) was determined as 86%. Under “1 µM inhibitor”, the inhibition at 1 µM turned out to be 96%.
